According to a melting point compilation (Tetko et al.; mined from patent text by program, amines drawn as free bases though some values may be those of a salt):

melting point [°C] | Compound
119 to 120 | Cc1oc(-c2ccco2)nc1COc1ccc(COc2nn(Cc3ccccc3)cc2CO)cc1Cl
99 to 102 | Nc1c(C(=O)c2cccc(Cl)c2)[nH]c2cc(Cl)ccc12
230 to 235 | CC(=O)NS(=O)(=O)c1ccc(-c2c(Cl)nc(C(F)(F)F)nc2-c2ccc(S(C)(=O)=O)cc2)cc1
110 to 112 | CCOC(=O)N=C(NC(=O)Nc1ccc(C)cc1)SCC
235 to 240 | Nc1nc(-c2ccc([N+](=O)[O-])cc2)c[nH]1
171 to 174 | CC1(C)Oc2cc([N+](=O)[O-])c(NC(=O)Cc3ccc(-c4ccccc4)cc3)cc2C2OC21 (stereo unspecified)
190 to 191 | O=C(NC1CCCCC1)NS(=O)(=O)c1ccc2c(c1)CCN(C(=O)N1CCOCC1)CC2
113 to 115 | CCOC(=O)N1CCOC(CN2C(=O)c3ccccc3C2=O)C1 (stereo unspecified)
156 to 158 | NCCc1ccc(-c2csc(N=C(N)N)n2)o1
88 | CCOC(=O)c1c(C(Cl)Cl)nc2c(C(F)(F)F)cccc2c1O
137 to 138 | CN(C)C(=O)Nc1ccc(Oc2ccc3c(c2)OC(C)(C)CC3)cc1
232 to 234 | NC(=O)[C@@H]1[C@H](Nc2c(Br)cnc3[nH]c(-c4cccc(N5CCOCC5)c4)nc23)[C@H]2C=C[C@@H]1C2
174 to 178 | O=C(O)CCc1ccc2c(c1)oc1ccc(Cl)cc12
176 to 179 | Nc1c(NCc2ccccc2)ccnc1Cl
118 to 120 | COc1cc2cc(CO)c(CO)c(-c3ccncc3)c2cc1OC
153 to 155 | O=C(c1ccccc1)c1ccc(O)c(O)c1[N+](=O)[O-]
194 to 196 | CCOC(=O)c1nc(-c2ccc([N+](=O)[O-])cc2)[nH]c1-c1cccc(OC)c1
104 to 105 | COC(=O)C1C=CCN2C(=O)C(C)(CCOS(C)(=O)=O)C(=O)N12 (stereo unspecified)
209 to 211 | CCN(c1cccc(-c2ccnc3c([N+](=O)[O-])cnn23)c1)S(=O)(=O)c1ccc(OC)cc1
150 to 154 | COc1ccnc(CCc2nc3cc(-c4ccc(S(=O)(=O)N5CCN(c6ccc(C)cc6)CC5)cc4)cnc3[nH]2)c1
106 to 109 | COC(=O)[C@H](Cc1ccccc1)NC(=O)CCC(=O)[C@H](Cc1ccccc1)NC(=O)c1ccccc1
285 to 287 | COc1cc2ncc(C#N)c(Nc3ccc4[nH]c(=O)sc4c3)c2cc1OC
117 to 119 | COC(=O)c1ccc(CCNCC(O)c2cc3ccccc3o2)cc1 (stereo unspecified)
130 to 131 | COc1ccc(C[C@@H](NC(=O)CCCc2ccccc2)[C@@H](O)c2ccc(F)cc2)cc1 (racemic)
151 to 153 | CN1C(=O)C[C@]2(c3ccccc3)CCCC[C@H]2C1=O (relative stereo)

melting point [°C] | Compound
150 | CCOC(c1ccccc1)(c1ccccc1)c1ncn(S(=O)(=O)N(C)C)c1C
118 to 119 | CC(C)Cn1c(-c2c(F)cccc2F)c(Cl)nc(-n2cccn2)c1=O
174 | CCCNC(=O)COC1c2ccccc2C(=O)N1c1ccc2ccc(OC)nc2n1 (stereo unspecified)
252 | O=C(Nc1cccc(S(=O)(=O)N2CCCC2)c1)c1cnn2c(C(F)(F)F)cc(-c3ccc(Cl)cc3)nc12
159 to 161 | CN(C)C=Nc1ccc(-c2ncnn2-c2ccc(F)cc2)cc1
76 to 77 | CC(=O)c1ccc(C2=CCCCC2)cc1
95 to 105 | COC(=O)CCCc1cc2nc(Cl)ccc2n1S(=O)(=O)c1cc(Cl)ccc1Cl
86 to 89 | Cc1nnc(Cl)c(-c2c(F)cc(F)cc2F)c1-c1ccc2ccccc2c1
215 to 216 | Cc1nnc(-c2ccc3occ(-c4cn[nH]c4)c3c2)o1
142 to 145 | CCOC1CC2(C)C(CCC3C2C(=O)CC2(C)C3CCC23OCCO3)CC1O (stereo unspecified)
> 240 | CC(C)(C)c1cc(-c2ccc(C(=O)O)c(C(C)(C)C)c2)ccc1O
70 | CCOC(=O)CNc1ccc(OCc2ccccc2)cc1
48 | CCOC(=O)c1c(N)c(Cl)cn1C
144 to 145 | CCNC(=O)CNc1c(C#N)cnn1-c1ccc(C(F)(F)F)cc1Cl
25 to 35 | CC(C)(N)CNCCCCCCNCC(C)(C)N
99 to 100 | CCOC(=O)c1ccc(C(=O)OCC)c2cc3ccccc3cc12
158 | NS(=O)(=O)c1ccc(C2CCCC2)cc1
266 | CS(=O)c1cc(CCC(=O)O)cc(-c2nc(=O)c3ccccc3s2)n1 (stereo unspecified)
201 to 202 | NC(=O)c1sc2ccc(Br)cc2c1-c1ccccc1
147 to 149 | O=C1NC(=O)C(Cc2ccc(C(=O)/C=C/c3ccccc3)cc2)S1 (stereo unspecified)
182 to 183 | CC(=O)OCC(=O)NCc1nc(-c2csc(N=C(N)N)n2)cs1
> 250 | Cc1nc(O)c2[nH]nc(C(C)C)c2n1
137 to 140 | COc1ccc(F)cc1C(C)(C)CC(O)(Cn1ccc(=N)c2ccccc21)C(F)(F)F (stereo unspecified)
58 | COc1ccc(S(=O)(=O)C(C)(Cc2ccccc2)C(=O)NO)cc1 (stereo unspecified)
72 | CCCCc1ccc(-c2nc(F)c(-c3ccc(OC)cc3)o2)cc1

melting point [°C] | Compound
85 to 86 | COC(=O)Cc1ccccc1OCc1ccc(N(Cc2nc(-c3ccccc3)oc2C)C(=O)OC(C)(C)C)cc1
42 | CC1(C)SC(=O)C2OC=CC=C21 (stereo unspecified)
173 to 174 | O=c1[nH]ncc2c(OCC3CO3)cccc12 (stereo unspecified)
74 to 76 | O=C(c1cccs1)c1cnn2c(-c3ccc(F)c(Br)c3)ccnc12
210 to 215 | COCCc1nc2c(N)nc3ccccc3c2n1CCCNS(=O)(=O)c1cccc2c(N(C)C)cccc12
80 to 82 | CCCCCCCCCCCCC1=C(Cl)C(=O)c2ccccc2C1=O
137 to 142 | Cc1cccc(NC(=O)N=C2CCCN2C)c1
266 to 267 | Cc1cccc(C(C)C)c1NC(=O)Nc1c(C)nc(-c2ccccc2)nc1-c1ccccc1Cl
75 to 79 | COc1cc(S(C)(=O)=O)c(C)cc1OCC(=O)NCC(O)COc1ccccc1C (stereo unspecified)
119 to 120 | CC(C)c1cc2ncnn2nc1OCCOCCN1CCN(C(c2ccccc2)c2ccccc2)CC1
110 | Oc1ccc2c(c1Cl)Sc1ccccc1N2
119 to 120 | CC1CCC2(CC1)OCCN2C(=O)C(Cl)Cl (stereo unspecified)
78 to 79 | CC(C)c1nsc(N=C(C#N)N(C)C)c1C#N
169 | Cc1cc(C(=O)NCc2ccc(Br)cc2F)c(OCC(=O)O)cc1F
233 to 235 | O=C1C(Cl)=C(N2CCN(c3nc4ccccc4o3)CC2)C(=O)c2nsnc21
34 to 35 | CCCCCCCCCCCCCCOc1ccc(COC(=O)Oc2ccccc2)cc1
180 to 184 | O=S1(=O)NCN(CCF)c2cc(Cl)cc(Cl)c21
153 to 155 | NC(=O)c1cccc(Oc2ncccc2C(=O)NCc2ccccc2Cl)c1
204 to 205 | CCn1ccc(=O)c(O)c1C
97 to 98 | C=CCOc1c(OC)cc([C@H]2CC[C@H](c3cc(OC)c(OC)c(OC)c3)O2)cc1S(C)(=O)=O (relative stereo)
234 to 236 | CC1(C(=O)c2c[nH]c3ncc(-c4ccc(N5CCCCC5)cc4)nc23)CCCCC1
164 to 166 | Cc1nc(C=O)c(C)[nH]1
121 to 124 | CC(C)c1cccc([N+](=O)[O-])c1C#N
125 to 126 | CC(=O)OCC1OC(n2c(=O)sc3c(Cl)nc(Cl)nc32)C(OC(C)=O)C1OC(C)=O (stereo unspecified)
103 to 107 | CNC(=O)C1CN(C(c2ccccc2)c2ccccc2)C1

melting point [°C] | Compound
151 to 156 | OC[C@H](O)CCOc1nc(N2CCNCC2)nc2ccccc12
> 300 | Cn1nc(N)c2c(=O)n(-c3ccccc3)c3ncccc3c21
160 to 162 | CC(=O)NC[C@H]1CN(c2cc(F)c(N3CCN(C(=O)CO)CC3)c(F)c2)C(=O)O1
195 to 198 | Oc1ccc(-c2cnc(NC(=S)Cc3ccccc3)c(Cc3ccccc3)n2)cc1
127 to 131 | CC(C)(O)CON1C(C)(C)CC(O)CC1(C)C
218 to 220 | CCCNC(=S)Nc1ccc(Oc2nc(OC)cc(OC)n2)c(C(=O)OC)n1
223 to 225 | O=C(Cc1ccc(Cl)cc1C(=O)O)Nc1cccc(/C=C/c2nc(C3CCC3)cs2)c1
233 to 234 | C=Cn1cc(C(=O)O)c(=O)c2cnc(N3CCN(C)CC3)nc21
212 to 216 | O=C(O)c1ccc(Cn2ccc3cc(OCc4ccc5ccccc5n4)ccc32)cc1
209 to 210 | Cc1cc(N2N=CCNC2=O)cc(Cl)c1Cc1ccc(Cl)cc1
200 to 202 | O=P1(c2ccccc2)c2ccccc2CN1c1ccc(Br)cc1 (stereo unspecified)
148 | COc1ccc(CNc2ncnc3c2ncn3C2OC(CO)C(O)C2O)cc1 (stereo unspecified)
257 | NNC(=O)Nc1cccc2c1C(=O)c1c-2n[nH]c1-c1ccc(N2CCNCC2)cc1
63 to 66 | O=C(NC1CCN(C(=O)c2ccccc2)CC1)c1ccccc1Oc1ccc(Cl)cc1Cl
183 to 184 | COc1cccc(/C=C/C(=O)Nc2ccccc2C(=O)O)c1
123 to 125 | N#Cc1ncn(Cc2ccccc2)c1C#N
235 to 237 | Cc1cc(N2CCN(CCc3ccc(NS(C)(=O)=O)cc3)CC2)ccc1NS(C)(=O)=O
108 to 110 | CC(C)(C)NC(=O)c1ccc(Cl)nc1
56 to 58 | Clc1ncnc2c1ncn2C1CC=CC1
181 to 183 | COC(=O)c1cc2cc(OC)c(OC)cc2cc1C(=O)O
173 | CN(C)C=Nc1snc(C#N)c1C#N
140 to 143 | CCCc1c(OCCCCCCc2ccc(OCCCC(=O)O)cc2/C=C/C(=O)O)ccc2c1OCCC2=O
87 to 88 | C=CCON=Cc1nc(-c2ccc(Cl)c(Cl)c2Cl)cn1S(=O)(=O)N(C)C

Compound | melting point [°C]
COc1ccc2c(c1OC)CC=C2c1c[nH]cn1 | 150
CN1C(c2cccnc2)CC(=O)CC1c1cccnc1 (stereo unspecified) | 103 to 106
CN1CC[C@@H]2CC(=O)c3cc(F)ccc3[C@H]2C1 (relative stereo) | > 250
